Our source for the IC50 values is patent publication US20110200549A1, “Organic Compounds Suitable For Modulating Fragrance Compositions” (priority 2008, published 2011).

The target in one experiment is T1, CYP2B6 (Homo sapiens, UniProt P20813).
T1 construct: made in house; host or cells: Sf9 insect cells, recombinant baculoviruses, coexpressed with P450 reductase
T1 sequence (P20813 1-491): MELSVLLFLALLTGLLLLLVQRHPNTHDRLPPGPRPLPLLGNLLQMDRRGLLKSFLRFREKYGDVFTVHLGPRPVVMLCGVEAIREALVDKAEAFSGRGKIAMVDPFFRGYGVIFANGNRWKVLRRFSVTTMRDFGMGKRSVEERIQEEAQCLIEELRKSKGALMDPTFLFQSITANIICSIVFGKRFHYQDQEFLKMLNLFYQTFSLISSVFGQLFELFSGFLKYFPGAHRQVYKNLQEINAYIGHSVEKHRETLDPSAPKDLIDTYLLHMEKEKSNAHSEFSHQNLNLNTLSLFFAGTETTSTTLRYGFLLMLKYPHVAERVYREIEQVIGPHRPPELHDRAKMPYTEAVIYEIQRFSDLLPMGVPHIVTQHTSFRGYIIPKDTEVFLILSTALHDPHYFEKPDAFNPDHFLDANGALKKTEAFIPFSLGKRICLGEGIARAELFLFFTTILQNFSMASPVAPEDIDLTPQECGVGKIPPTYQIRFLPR
Put plainly: CYP2B6 inhibition, 7-ethoxy-4-trifluoromethyl-coumarin fluorescence assay in microsomes. The experiment is classed as biochemical. The following applies: CYP2B6 + P450 reductase microsomes, 7-ethoxy-4-trifluoromethyl-coumarin 6 μM, 40 min at 37° C.; read-out: CYP2B6 inhibitor activity IC50. The method, then: Test compounds that inhibit the activity of CYP2B6 are identified by using the same principle as described in Example 42, first paragraph.
A test compound (details see Table 2) was incubated with CYP2B6 in the presence of a cytochrome P450 reductase. CYP2B6 and P450 reductase are produced using recombinant baculoviruses and co-expressing the two proteins in Sf9 insect cells as described in Example 42. Alternatively, microsomes containing CYP2B6 and the reductase are commercially available (BD Biosciences Gentest, USA). Microsomes were used which contained 1.5 pmoles CYP2B6. Potassium phosphate buffer final concentration was 100 mM, (1M stock, pH 7.4). The test compound was prepared as a 50 mM stock solution in acetonitrile. The concentration of the standard substrate 7-ethoxy-4-trifluoromethyl-coumarin was 6 μM. Several samples of the test compound were prepared at various concentrations to give different final concentrations in the reaction: 0, 0.005, 0.01, 0.02, 0.05, 0.1 and 0.2 mM. […] The final total volume was 0.2 ml, which is suitable for microtiter plate measurements. The samples were incubated for 40 min at 37° C. After 40 min, the enzymatic reaction was stopped by the addition of […] 0.5M Tris-base/acetonitrile (18:72). 0.005 ml of a solution of 50 mM NADPH in water was added to the control reaction which corresponds to the reaction with test compound and enzyme but without NADPH, and as a consequence, no 4-trifluoromethyl-umbelliferone was formed. Denatured proteins and other insoluble parts were separated by centrifugation (5 min, 1800 rpm, at 10° C.).
The samples were analysed spectrofluorometrically which allows to detect the formation of 4-trifluoromethyl-umbelliferone as the enzymatic product at an excitation wavelength of 410 nm and an emission wavelength of 510 nm.

A further experiment concerns the target T2, CYP2A13 (Homo sapiens, UniProt Q16696).
T2 construct: made in house; host or cells: Sf9 insect cells, recombinant baculovirus
T2 sequence (Q16696 1-494): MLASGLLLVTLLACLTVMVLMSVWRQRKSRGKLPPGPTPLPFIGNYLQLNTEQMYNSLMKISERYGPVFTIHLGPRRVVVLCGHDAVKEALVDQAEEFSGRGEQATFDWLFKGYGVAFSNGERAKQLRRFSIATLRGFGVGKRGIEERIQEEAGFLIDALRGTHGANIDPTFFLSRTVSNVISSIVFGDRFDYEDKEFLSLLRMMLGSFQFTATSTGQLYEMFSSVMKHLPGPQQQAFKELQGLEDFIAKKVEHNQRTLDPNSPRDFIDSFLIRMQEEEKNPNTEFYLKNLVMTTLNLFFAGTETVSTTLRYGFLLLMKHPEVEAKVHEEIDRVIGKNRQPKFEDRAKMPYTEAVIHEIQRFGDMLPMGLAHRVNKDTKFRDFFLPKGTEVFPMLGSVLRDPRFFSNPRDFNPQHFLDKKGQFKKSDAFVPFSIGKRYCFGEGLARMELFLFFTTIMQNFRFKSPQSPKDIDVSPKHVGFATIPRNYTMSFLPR
Put plainly: CYP2A13 inhibition, coumarin 7-hydroxylation (Umbelliferone fluorescence) in microsomes. The experiment is classed as biochemical. The conditions noted are these: recombinant CYP2A13 + P450 reductase microsomes, coumarin 0.006 mM, 60 min at 37° C.; read-out: CYP2A13 inhibitor activity IC50. The method, then: Compounds that inhibit the activity of CYP2A13 are identified by using a standard reaction established for the enzyme. A known substrate is coumarin, and the product of the enzymatic reaction is 7-hydroxy-coumarin (Umbelliferone) which is strongly fluorescent. When a compound is added to the standard reaction and the formation of Umbelliferone is decreased, the compound is identified as an inhibitor, which can also be a competitive substrate of the enzyme. The compound is used at various concentrations and the concentration-dependent decrease in Umbelliferone formation allows to determine the concentration where the activity of the enzyme is reduced to the 50% level (IC50 value).
A test compound (details see Table 1) was incubated with CYP2A13 in the presence of a cytochrome P450 reductase. CYP2A13 and P450 reductase were employed in form of microsomes. CYP2A13 was produced in Sf9 cells using a recombinant baculovirus, under conditions known to the person skilled in the art, for example, as described in WO 2006/007751. P450 reductase is commercially available (BD Biosciences Gentest, USA). Preferably, the two enzymes are coexpressed in the same insect cells and microsomes prepared which contain both enzymes. The art of coexpression of two enzymes is known, and the coexpression CYP2A13 and P450 reductase is described in WO 2006/007751. […] An MOI of 4 for recombinant CYP2A13 baculovirus combined with an MOI of 3.5 for recombinant P450 reductase baculovirus routinely produced microsomes with considerable activity.
Microsomes were used which contained 7 pmoles CYP2A13. Tris buffer (1 M, pH 7.6) and water were added to give a buffer concentration of 0.1M. The test compound was prepared as a 50 mM stock solution in acetonitrile. The concentration of the standard substrate coumarin was 0.006 mM. Several samples of the test compound were prepared at various concentrations to give different final concentrations in the reaction: 0, 0.005, 0.01, 0.02, 0.05, 0.1 and 0.2 mM. The mixture was incubated for 10 min at 37° C. prior to the initiation of the enzymatic reaction by the addition of 0.005 ml of a solution of 50 mM NADPH in water. The final total volume was 0.2 ml, which is suitable for microtiter plate measurements. The samples were incubated for 60 min at 37° C. After 60 min, the enzymatic reaction was stopped by the addition of 0.02 ml cold 50% trichloroacetic acid (TCA) and incubated at 4° C. for 15 min. 0.005 ml of a solution of 50 mM NADPH in water was added to the control reaction which corresponds to the reaction without test compound and without NADPH, and as a consequence, no Umbelliferone was formed. Denatured proteins and other insoluble parts were separated by centrifugation (10 min, 560×g, room-temperature).
The samples were analysed spectrofluorometrically which allows to detect the formation of Umbelliferone as the enzymatic product of coumarin at an excitation wavelength of 340 nm and an emission wavelength of 480 nm.

As usually defined, the IC50 is the midpoint of a concentration-inhibition curve. As to `CCCCCN(Cc1ccccc1)C(C)=O` [Ex. 1, N-benzyl-N-pentylacetamide], the half-inhibitory concentration (IC50) worked out at 72 µM on CYP2B6 and 0.3 µM at CYP2A13.

With `CCCCCN(C(C)=O)c1ccccc1` [Ex. 2, N-pentyl-N-phenylacetamide], the concentration for half-maximal inhibition (IC50) at CYP2B6 amounted to 46 µM; on CYP2A13 it was 0.5 µM.

Turning to `CCCCCN(CCc1ccccc1)C(C)=O` [Ex. 3, N-pentyl-N-phenethylacetamide], the half-maximal inhibitory concentration (IC50) worked out at 93 µM on CYP2B6 and 2 µM on CYP2A13.

Regarding `CCCCCN(Cc1cccnc1)C(C)=O` [Ex. 4, N-pentyl-N-(pyridin-3-ylmethyl)acetamide], the concentration for half-maximal inhibition (IC50) at CYP2A13 turned out to be 15 µM.

Take `CCCCCN(Cc1cccnc1)C(=O)OC` [Ex. 5, methyl pentyl(pyridin-3-ylmethyl)carbamate]: the IC50 at CYP2A13 was 22 µM.

As to `CCCCN(Cc1ccccc1)C(C)=O` [Ex. 6, N-benzyl-N-butylacetamide], the concentration for half-maximal inhibition (IC50) on CYP2A13 stood at 8 µM.

Turning to `CCCCCN(Cc1ccncc1)C(C)=O` [Ex. 8, N-pentyl-N-(pyridin-4-ylmethyl)acetamide], at CYP2A13, the half-maximal inhibitory concentration (IC50) is 11 µM.

For the compound `CCCCCN(Cc1ccncc1)C(=O)OC` [Ex. 9, methyl pentyl(pyridin-4-ylmethyl)carbamate], the 50% inhibitory concentration (IC50) at CYP2A13 was found to be 17 µM.

Turning to `CCCCCN(CC1CC1)C(=O)OC` [Ex. 11, methyl cyclopropylmethyl(pentyl)carbamate], the IC50 worked out at 28 µM on CYP2B6 and 3 µM on CYP2A13.

As to `CCCCCN(CCc1ccccn1)C(C)=O` [Ex. 16, N-pentyl-N-(2-(pyridin-2-yl)ethyl)acetamide], the half-maximal inhibitory concentration (IC50) at CYP2A13 turned out to be 24 µM.

Turning to `CCCCCN(CCc1ccccn1)C(=O)OC` [Ex. 17, methyl pentyl(2-(pyridin-2-yl)ethyl)carbamate], the IC50 on CYP2A13 was 44 µM.

Consider `CCCCCN(CCc1cccnc1)C(C)=O` [Ex. 18, N-pentyl-N-(2-(pyridin-3-yl)ethyl)acetamide], for which the half-maximal inhibitory concentration (IC50) on CYP2A13 worked out at 25 µM.

`CCCCCN(CCc1cccnc1)C(=O)OC` [Ex. 19, methyl pentyl(2-(pyridin-3-yl)ethyl)carbamate]: on CYP2A13, the half-maximal inhibitory concentration (IC50) came to 41 µM.

For `CCCCCN(CCc1ccncc1)C(C)=O` [Ex. 20, N-pentyl-N-(2-(pyridin-4-yl)ethyl)acetamide], the figures for the IC50 on CYP2B6 and on CYP2A13 were 19 µM and 13 µM, respectively.

Consider `CCCCCN(CCc1ccncc1)C(=O)OC` [Ex. 21, methyl pentyl(2-(pyridin-4-yl)ethyl)carbamate], for which the half-maximal inhibitory concentration (IC50) on CYP2A13 amounted to 2 µM.

For `CCCCCN(Cc1ccccn1)C(C)=O` [Ex. 22, N-pentyl-N-(pyridin-2-ylmethyl)acetamide], the IC50 on CYP2A13 was found to be 10 µM.

With `CCCCCN(Cc1ccccn1)C(=O)OC` [Ex. 23, methyl pentyl(pyridin-2-ylmethyl)carbamate], the IC50 on CYP2A13 was 20 µM.

With `CCCCCN(CCc1c[nH]cn1)C(C)=O` [Ex. 27, N-(2-(1H-imidazol-4-yl)ethyl)-N-pentylacetamide], the IC50 at CYP2B6 turned out to be 2.5 µM; at CYP2A13, 34 µM.

Take `CCCCCN(CCc1c[nH]cn1)C(=O)OC` [Ex. 28, methyl 2-(1H-imidazol-4-yl)ethyl(pentyl)carbamate]: the IC50 on CYP2A13 was found to be 47 µM.

Turning to `CCCCCN(Cc1ccccc1)C(=O)OC` [Ex. 29, methyl benzyl(pentyl)carbamate], the values for the half-inhibitory concentration (IC50) at CYP2B6 and at CYP2A13 were 20 µM and 1.6 µM, respectively.

In the case of `CCCCCN(C(C)=O)C(=O)C1CC1` [Ex. 33, N-acetyl-N-pentylcyclopropanecarboxamide], the IC50 is 17 µM on CYP2B6 and 0.7 µM on CYP2A13.

On to `CCCCCN(C(C)=O)C(=O)OC(C)(C)C` [Ex. 34, tert-butyl acetyl(pentyl)carbamate], for which the half-maximal inhibitory concentration (IC50) on CYP2B6 was 11 µM; at CYP2A13, 1.5 µM.

On to `CC(=O)N(CCc1ccccc1)Cc1ccccc1` [Ex. 35, N-benzyl-N-phenethylacetamide], for which, on CYP2A13, the concentration for half-maximal inhibition (IC50) was determined as 52 µM.

Consider `CCCCCN(C=O)CC1CC1` [Ex. 36, N-(cyclopropylmethyl)-N-pentylformamide], for which the half-inhibitory concentration (IC50) was determined as 49 µM at CYP2B6 and 1.3 µM at CYP2A13.

Take `CCCCC/C(=C\c1ccccc1)C(=O)NC` [Ex. 37, (E)-2-benzylidene-N-methylheptanamide]: the IC50 on CYP2A13 was determined as 0.5 µM.

`CCCCC/C(=C\C1CC1)C(=O)NC` [Ex. 38, (E)-2-(cyclopropylmethylene)-N-methylheptanamide]: the IC50 on CYP2A13 was determined as 0.8 µM.

Regarding `CCCCC/C(=C\c1ccccc1)C(=O)N(C)C` [Ex. 39, (E)-2-benzylidene-N,N-dimethylheptanamide], the IC50 at CYP2A13 was determined as 3 µM.

In the case of `CCCCC/C(=C\C1CC1)C(=O)N(C)C` [Ex. 40, (E)-2-(cyclopropylmethylene)-N,N-dimethylheptanamide], on CYP2A13, the IC50 is 9 µM.

Regarding `CCCCC/C(=C\C1CC1)C(N)=O` [Ex. 41, (E)-2-(cyclopropylmethylene)heptanamide], on CYP2A13, the IC50 stood at 1.1 µM.
